Measurements from patent publication US10017741B2, “Compositions and methods for obtaining enriched mesenchymal stem cell cultures” (StemCell Technologies Inc., priority 2013, dated 2018).

Tests used:
[1] = tested on: BM-derived cultures (CD45+/CD11b+ macrophages, Sca1+ monocytes); test: Flow cytometry of BM-derived expansion cultures; assay type: cell-based, mouse; conditions: BM-derived cultures, 1 μM up to P2
Experimental: (§1) c. Expansion of Human BM and Mouse BM and CB-Derived Cells Assay • 1. […] Cultures were allowed to grow for 10-14 days until adherent cells achieved 70 to 80% confluence. Mouse cultures were maintained under normal (5% CO2) or hypoxic conditions (5% CO2/5% O2) at 37 C in a cell culture incubator. Human cultures were maintained under 5% CO2 at 37 C in a humidified cell culture incubator. • 3. Adherent cells were passaged by releasing cultures from flask. Cultures were washed with 5 mL PBS and then 5 mL of 0.25% trypsin solution ([…] catalogue #07901) was added and the flasks incubated for 10 min at 37 C. To each flask, 5 mL complete medium was added to stop trypsin activity. • 4. Released cells were collected into a tube and centrifuged at 300×g for 5 minutes. • 5. Cells were resuspended in 2 mL of medium and counted using a hemocytometer. • 6. […] P1 cultures were incubated until they reached 70 to 80% confluence. • 8. Passaged cultures can be used at any time from P0 to P10 as needed for different applications.
(§2) d. Flow Cytometry Analysis • 1. Cultures of BM and CB-derived cells were trypsinized for 10 minutes and an equal volume of complete medium was added to cultures to stop trypsin activity • 2. Cell suspension was filtered through a 40 μm strainer, and cells counted using a hemocytometer • 3. Suspension was spun down at 300×g for 5 minutes. • 4. Supernatant was removed and cell pellet resuspended in FACS buffer (PBS with 2% FBS and 1 mM EDTA) • 5. A total of 1×10^5 cells in 300 μL FACS buffer was used for each flow cytometry analysis tube, including unstained, viability, compensation, and isotype controls. • 6. Cell suspensions were stained with fluorophore-labeled antibodies against CD45, CD11b, and Sca1, CD29, and viability dye. • 7. Cell suspensions were analyzed on a flow cytometer using compensation and isotype control to determine laser voltage and gating. • 8. Samples were gated on viable CD45^+ cells and 10,000 events per sample were collected. Alternatively, cells were gated on viable CD45^− cells and out of this gate the proportion of CD29+/Sca1^+ cells obtained.

[2] = tested on: CB-derived cultures (CD45+/CD11b+ macrophages, Sca1+ monocytes); test: Flow cytometry of CB-derived expansion cultures; assay type: cell-based, mouse; conditions: CB-derived cultures, 1 μM up to P2
Experimental: as §1, §2

## COc1cc(Oc2ccnc3cc(OC)c(OC)cc23)ccc1NC(=O)NC(C)c1nccs1 (centres unmarked) [KI20227, N-{4-[(6,7-dimethoxy-4-quinolyl)oxy]-2-methoxyphenyl}-N0-[1-(1,3-thiazole-2-yl)ethyl]urea]
[1]
  CD45+/CD11b+ mature macrophages, of viable cells: < 2%
[2]
  CD45+/CD11b+ mature macrophages, of viable cells: < 2%
